Experimental data: patent US8415486B2, “IAP inhibitors” (TetraLogic Pharmaceuticals Corp., priority 2009, dated 2013)

Tests used:
XIAP BIR-3 = target: T1, XIAP BIR-3 (Homo sapiens, UniProt P98170); assay: Fluorescence polarization binding to XIAP BIR-3 with labeled peptide AbuRPF-K(5-Fam)-NH2; settings: 40 nM BIR3, 5 nM labeled peptide, reported as ranges
T1 construct: 40 nM of the respective IAP BIR3
Procedure: (§1) The binding affinities of the compounds are reported as a KD value (μM). Briefly, various concentrations of test peptides were mixed with 5 nM of the fluorescently labeled peptide (i.e., a mutated N-terminal Smac peptide—AbuRPF-K(5-Fam)-NH2) and 40 nM of the respective IAP BIR3 for 15 min at RT in […] of 0.1M Potassium Phosphate buffer, pH 7.5 containing 100 mg/ml bovine g-globulin. Following incubation, the polarization values (mP) were measured on a Victor2V (available from PerkinElmer Life Sciences) using a 485 nm excitation filter and a 520 nm emission filter. The reported binding affinities (KD values) are supplied as ranges (A=<0.1 μM, B=0.1 μM to 1 μM, C=>1 μM to 10 μM, D=>10 μM).

[1] = test system: ovarian cancer cell line, SK-OV-3; assay: SK-OV-3 cell growth inhibition (MTT, 72 hrs); format: cell-based; settings: Homo sapiens, concentration giving 50% cell survival, reported as ranges
Procedure: Compounds of the invention also were tested for their ability to inhibit the growth of an ovarian cancer cell line, SK-OV-3. A known assay previously used for measuring cell growth (as described in Hansen, M. B., Nielsen, S. E., and Berg, K. (1989) J. Immunol. Methods 119, 203-210 and incorporated herein by reference in its entirety) was used. Briefly, SK-OV-3 cells are seeded in 96-well plates in McCoy's medium containing 10% fetal bovine serum albumin (5,000 per well) and incubated overnight at 37° C. The next day, test compounds are added at various concentrations (0.003-10 μM) and the plates are incubated at 37° C. for an additional 72 hrs. This incubation time was considered to be optimal for measuring inhibitory effects of the different compounds tested. 50 microliters of 5 mg/mL MTT reagent is added to each well and the plates are incubated at 37° C. for another three (3) hours. At the end of the three (3) hour incubation period, 50 microliters of DMSO is added to each well to dissolve cells and the optical density (OD) of the wells is measured with a microplate reader (Victor^2 1420, Wallac, Finland) at 535 nm. Cell survival (CS) was calculated using the following equation: CS=(OD treated well/mean OD control wells)×100%.
The CC50 (reported in the following tables), is defined as the drug concentration that results in 50% cell survival (CS), and is derived by calculating the point where the dose-response curve crosses the 50% CS point using GraphPad Prism. The reported CC50 values are supplied as ranges (A=<0.1 μM, B=0.1 μM to 1 μM, C=>1 μM to 10 μM, D=>10 μM).

cIAP-1 BIR-3 = target: T2, cIAP-1 BIR-3 (Homo sapiens, UniProt Q13490); assay: Fluorescence polarization binding to cIAP-1 BIR-3 with labeled peptide AbuRPF-K(5-Fam)-NH2; settings: 40 nM BIR3, 5 nM labeled peptide, reported as ranges, read-out: KD (c-IAP-1 BIR3)
T2 construct: 40 nM of the respective IAP BIR3
T2 sequence (Q13490 253-363 limits assumed): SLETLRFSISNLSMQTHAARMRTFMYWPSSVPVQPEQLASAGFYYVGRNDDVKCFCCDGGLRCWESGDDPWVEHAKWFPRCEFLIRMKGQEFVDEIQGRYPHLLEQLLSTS
Procedure: as §1

T1 sequence (P98170 241-356 limits assumed): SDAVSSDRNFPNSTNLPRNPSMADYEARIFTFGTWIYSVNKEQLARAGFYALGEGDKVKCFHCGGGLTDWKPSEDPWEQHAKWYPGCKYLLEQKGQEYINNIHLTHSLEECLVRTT

Structure (SMILES) | Kd (XIAP BIR-3) | CC50 [1] | Kd (cIAP-1 BIR-3)
CN[C@@H](C)C(=O)N[C@H](C(=O)N1CC[C@@H]2[C@H]1[C@@H](OCc1ccc(F)cc1)CN2C(C)=O)C(C)(C)C [Example 40, N-{1-[4-Acetyl-6-(4-fluoro-benzyloxy)-hexahydro-pyrrolo[3,2-b]pyrrole-1-carbonyl]-2,2-dimethyl-propyl}-2-methylamino-propionamide] | < 100 nM | < 100 nM | < 100 nM
CN[C@@H](C)C(=O)N[C@H](C(=O)N1CC[C@@H]2[C@H]1[C@@H](OCc1ccc(F)cc1)CN2C(=O)N(C)C)C(C)(C)C [Example 41, (3S,3aS,6aR)-4-((S)-3,3-dimethyl-2((S)-2-(methylamino)propanamido)butanoyl)-3-(4-fluorobenzyloxy)-N,N-dimethylhexahydropyrrolo[3,2-b]pyrrole-1(2H)-carboxamide] | < 100 nM | < 100 nM | < 100 nM
CN[C@@H](C)C(=O)N[C@H](C(=O)N1CC[C@H]2NC[C@H](OCc3ccccc3)[C@H]21)C1CCCCC1 [Example 31, (S)—N—((S)-2-((3aR,6S,6aS)-6-(benzyloxy)hexahydropyrrolo[3,2-b]pyrrol-1(2H)-yl)-1-cyclohexyl-2-oxoethyl)-2-(methylamino)propanamide] | 100 to 1000 nM | 100 to 1000 nM | < 100 nM
CN[C@@H](C)C(=O)N[C@H](C(=O)N1CC[C@@H]2[C@H]1[C@@H](Oc1ccccc1)CN2S(C)(=O)=O)C(C)C [Example 3, N-[1-(4-Methanesulfonyl-6-phenoxy-hexahydro-pyrrolo[3,2-b]pyrrole-1-carbonyl)-2-methyl-propyl]-2-methylamino-propionamide] | < 100 nM | < 100 nM | < 100 nM
CN[C@@H](C)C(=O)N[C@H](C(=O)N1CC[C@@H]2[C@H]1[C@@H](OCc1ccc(F)cc1)CN2c1ncccn1)C(C)(C)C [Example 45, (S)—N—((S)-1-((3aR,6S,6aS)-6-(4-fluorobenzyloxy)-4-(pyrimidin-2-yl)hexahydropyrrolo[3,2-b]pyrrol-1(2H)-yl)-3,3-dimethyl-1-oxobutan-2-yl)-2-(methylamino)propanamide] | 100 to 1000 nM | < 100 nM | < 100 nM
CN[C@@H](C)C(=O)N[C@H](C(=O)N1CC[C@@H]2[C@H]1[C@@H](Oc1ccc(F)c(F)c1)CN2C(=O)CC(C)C)C(C)(C)C [Example 22, N-{1-[6-(3,4-Difluoro-phenoxy)-4-(3-methyl-butyryl)-hexahydro-pyrrolo[3,2-b]pyrrole-1-carbonyl]-2,2-dimethyl-propyl}-2-methylamino-propionamide] | < 100 nM | < 100 nM | < 100 nM
CN[C@@H](C)C(=O)N[C@H](C(=O)N1CC[C@H]2NC[C@H](Oc3ccccc3-c3ccccc3)[C@H]21)C1CCCCC1 [Example 4, N-{2-[6-(Biphenyl-2-yloxy)-hexahydro-pyrrolo[3,2-b]pyrrol-1-yl]-1-cyclohexyl-2-oxo-ethyl}-2-methylamino-propionamide] | 100 to 1000 nM | 100 to 1000 nM | < 100 nM
CN[C@@H](C)C(=O)N[C@H](C(=O)N1CC[C@@H]2[C@H]1[C@@H](OC(=O)Nc1cccc3ccccc13)CN2C(=O)NC(C)C)C(C)(C)C [Example 49, Naphthalen-1-yl-carbamic acid 4-[3,3-dimethyl-2-(2-methylamino-propionylamino)-butyryl]-1-isopropylcarbamoyl-octahydro-pyrrolo[3,2-b]pyrrol-3-yl ester] | 100 to 1000 nM | < 100 nM | < 100 nM
CN[C@@H](C)C(=O)N[C@H](C(=O)N1CC[C@H]2NC[C@H](Oc3ccc4c(c3)CCCC4)[C@H]21)C1CCCCC1 [Example 6, N-{1-Cyclohexyl-2-oxo-2-[6-(5,6,7,8-tetrahydro-naphthalen-2-yloxy)-hexahydro-pyrrolo[3,2-b]pyrrol-1-yl]-ethyl}-2-methylamino-propionamide] | < 100 nM | < 100 nM | < 100 nM
CNC(C)C(=O)NC(C(=O)N1CCC2C1C(OC(=O)NCc1ccccc1)CN2C(=O)NC(C)C)C(C)(C)C (stereo not drawn) [Example 46, Benzyl-carbamic acid 4-[3,3-dimethyl-2-(2-methylamino-propionylamino)-butyryl]-1-isopropylcarbamoyl-octahydro-pyrrolo[3,2-b]pyrrol-3-yl ester] | 100 to 1000 nM | < 100 nM | < 100 nM
CN[C@@H](C)C(=O)N[C@H](C(=O)N1CC[C@@H]2[C@H]1[C@@H](OCc1ccc(F)cc1)CN2C(=O)C(C)=O)C(C)(C)C [Example 42, N-{1-[6-(4-Fluoro-benzyloxy)-4-(2-oxo-propionyl)-hexahydro-pyrrolo[3,2-b]pyrrole-1-carbonyl]-2,2-dimethyl-propyl}-2-methylamino-propionamide] | < 100 nM | < 100 nM | < 100 nM
CN[C@@H](C)C(=O)N[C@H](C(=O)N1CC[C@@H]2[C@H]1[C@@H](OC(=O)NC1CCCC1)CN2C(=O)NC(C)C)C(C)(C)C [Example 56, Cyclopentyl-carbamic acid 4-[3,3-dimethyl-2-(2-methylamino-propionylamino)-butyryl]-1-isopropylcarbamoyl-octahydro-pyrrolo[3,2-b]pyrrol-3-yl ester] | 100 to 1000 nM | 100 to 1000 nM | < 100 nM
CN[C@@H](C)C(=O)N[C@H](C(=O)N1CC[C@H]2NC[C@H](Oc3cccc4c3CCCC4)[C@H]21)C1CCCCC1 [Example 5, N-{1-Cyclohexyl-2-oxo-2-[6-(5,6,7,8-tetrahydro-naphthalen-1-yloxy)-hexahydro-pyrrolo[3,2-b]pyrrol-1-yl]-ethyl}-2-methylamino-propionamide] | 100 to 1000 nM | 100 to 1000 nM | < 100 nM
CCN1C[C@H](Oc2ccc(F)c(F)c2)[C@@H]2[C@H]1CCN2C(=O)[C@@H](NC(=O)[C@H](C)NC)C(C)(C)C [Example 16, N-{1-[6-(3,4-Difluoro-phenoxy)-4-ethyl-hexahydro-pyrrolo[3,2-b]pyrrole-1-carbonyl]-2,2-dimethyl-propyl}-2-methylamino-propionamide] | < 100 nM | 100 to 1000 nM | < 100 nM
CN[C@@H](C)C(=O)N[C@H](C(=O)N1CC[C@@H]2[C@H]1[C@@H](O)CN2C(=O)NC(C)C)C(C)(C)C [Example 61, 4-[3,3-Dimethyl-2-(2-methylamino-propionylamino)-butyryl]-3-hydroxy-hexahydro-pyrrolo[3,2-b]pyrrole-1-carboxylic acid isopropylamide] | > 10000 nM | 1000 to 10000 nM | 100 to 1000 nM
CN[C@@H](C)C(=O)N[C@H](C(=O)N1CC[C@@H]2[C@H]1[C@@H](OCc1ccc(F)cc1)CN2C1CCOCC1)C(C)(C)C [Example 43, (S)—N—((S)-1-((3aR,6S,6aS)-6-(4-fluorobenzyloxy)-4-(tetrahydro-2H-pyran-4-yl)hexahydropyrrolo[3,2-b]pyrrol-1(2H)-yl)-3,3-dimethyl-1-oxobutan-2-yl)-2-(methylamino)propanamide] | 100 to 1000 nM | < 100 nM | < 100 nM
